In ChEMBL document CHEMBL4732071, “Discovery of selective HDAC/BRD4 dual inhibitors as epigenetic probes” (Eur J Med Chem, 2021):
Active and inactive are the calls of the source. The rule behind the calls is not given here.

What was measured:
[1] = target: T1, Bromodomain-containing protein 4 (Homo sapiens, UniProt O60885); assay: Inhibition of His-tagged BRD4 bromodomain 2 (unknown origin) using [Lys (5,8,12,16) Ac] H4(1-21) as substrate by fluorescence based assay
[2] = target: T1, Bromodomain-containing protein 4; assay: Inhibition of BRD4 in human MV4-11 cells assessed as reduction in c-Myc expression at 10 to 1000 nM measured after 24 hrs by Western blot analysis; format: cell-based; settings: dose 10-1000 nM
[3] = target: T2, Protein deacetylase HDAC6 (Homo sapiens, UniProt Q9UBN7); assay: Inhibition of HDAC6 (unknown origin) by fluorescence based assay
T2 sequence (Q9UBN7 whole entry): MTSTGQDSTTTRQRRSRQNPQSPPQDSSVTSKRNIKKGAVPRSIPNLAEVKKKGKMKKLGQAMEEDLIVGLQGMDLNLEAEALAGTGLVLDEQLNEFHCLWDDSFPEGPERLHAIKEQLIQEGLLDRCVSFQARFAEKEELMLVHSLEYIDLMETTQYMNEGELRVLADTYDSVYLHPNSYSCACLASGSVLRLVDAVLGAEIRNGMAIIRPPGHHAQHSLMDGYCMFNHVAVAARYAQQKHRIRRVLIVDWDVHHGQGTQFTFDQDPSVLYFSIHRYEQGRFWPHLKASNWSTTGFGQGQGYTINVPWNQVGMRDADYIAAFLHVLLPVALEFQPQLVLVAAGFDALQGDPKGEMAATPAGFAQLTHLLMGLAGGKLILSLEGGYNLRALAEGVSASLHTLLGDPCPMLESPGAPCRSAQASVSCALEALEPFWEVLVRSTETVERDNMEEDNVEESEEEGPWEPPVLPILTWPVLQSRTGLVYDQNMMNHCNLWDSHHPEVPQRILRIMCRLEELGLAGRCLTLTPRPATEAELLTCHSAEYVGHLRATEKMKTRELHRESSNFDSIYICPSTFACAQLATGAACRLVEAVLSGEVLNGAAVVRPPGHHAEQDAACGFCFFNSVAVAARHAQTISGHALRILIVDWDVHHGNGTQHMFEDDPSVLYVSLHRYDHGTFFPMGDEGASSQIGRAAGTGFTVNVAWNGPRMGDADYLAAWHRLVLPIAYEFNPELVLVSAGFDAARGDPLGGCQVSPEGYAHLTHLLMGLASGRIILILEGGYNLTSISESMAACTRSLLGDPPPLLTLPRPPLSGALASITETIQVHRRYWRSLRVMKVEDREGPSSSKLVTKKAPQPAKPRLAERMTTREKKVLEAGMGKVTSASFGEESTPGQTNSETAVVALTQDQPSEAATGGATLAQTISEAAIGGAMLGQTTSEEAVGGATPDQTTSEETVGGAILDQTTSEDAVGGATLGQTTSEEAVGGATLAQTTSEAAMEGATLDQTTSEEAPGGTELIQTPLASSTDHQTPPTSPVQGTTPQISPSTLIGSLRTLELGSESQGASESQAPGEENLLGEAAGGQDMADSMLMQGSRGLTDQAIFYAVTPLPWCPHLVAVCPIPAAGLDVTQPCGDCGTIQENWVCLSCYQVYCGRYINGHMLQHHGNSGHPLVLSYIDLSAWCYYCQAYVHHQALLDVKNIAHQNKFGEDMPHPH

MV4-11 = assay: Antiproliferative activity against human MV4-11 cells assessed as cell viability after 72 hrs by CCK8 assay; format: functional, cell-based; settings: MV4-11, 72 h
[4] = target: T1, Bromodomain-containing protein 4; assay: Inhibition of His-tagged BRD4 bromodomain 1 (unknown origin) using [Lys (5,8,12,16) Ac] H4(1-21) as substrate by fluorescence based assay
Histone deacetylase 1 = Histone deacetylase 1 (Homo sapiens, UniProt Q13547); assay: Inhibition of HDAC1 (unknown origin) by fluorescence based assay
Sequence of Histone deacetylase 1 (Q13547 whole entry): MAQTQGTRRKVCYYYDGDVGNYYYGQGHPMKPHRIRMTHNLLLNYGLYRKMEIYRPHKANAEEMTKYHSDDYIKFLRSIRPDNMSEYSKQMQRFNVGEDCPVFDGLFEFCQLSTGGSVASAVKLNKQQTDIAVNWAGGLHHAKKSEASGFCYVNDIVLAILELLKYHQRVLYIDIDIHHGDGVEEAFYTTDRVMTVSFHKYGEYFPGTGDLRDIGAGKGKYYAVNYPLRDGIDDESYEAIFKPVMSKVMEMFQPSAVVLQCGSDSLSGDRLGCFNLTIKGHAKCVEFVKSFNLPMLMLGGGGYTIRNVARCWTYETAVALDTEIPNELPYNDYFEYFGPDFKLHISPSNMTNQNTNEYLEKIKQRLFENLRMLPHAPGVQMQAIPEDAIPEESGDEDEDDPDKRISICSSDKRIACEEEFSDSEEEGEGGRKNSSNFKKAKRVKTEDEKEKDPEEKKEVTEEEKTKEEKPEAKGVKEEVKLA

IC50 [1] | inhibition [2] | IC50 [3] | IC50 (MV4-11) | IC50 [4] | IC50 (Histone deacetylase 1) | Compound
0.0038 µM | Active | 0.0034 µM | 0.61 µM | 0.0214 µM | 0.0444 µM | Cn1cc(-c2ccccc2Oc2ccccc2)c2cc(C(=O)NCCCCCC(=O)NO)[nH]c2c1=O
0.571 µM |  |  |  | 0.371 µM | 0.21 µM | Cn1cc(-c2ccccc2C(F)(F)F)c2cc(C(=O)NCc3ccc(C(=O)Nc4ccccc4N)cc3)[nH]c2c1=O
> 10 µM |  |  |  | > 10 µM |  | O=C(CCCCCCC(=O)Nc1ccccc1)NO [VORINOSTAT]
0.206 µM |  |  |  | 0.102 µM | 0.0488 µM | Cn1cc(-c2ccccc2Cl)c2cc(C(=O)NCc3ccc(C(=O)Nc4ccccc4N)cc3)[nH]c2c1=O
0.0113 µM |  | > 0.5 µM | 0.24 µM | 0.073 µM | > 0.5 µM | Cn1cc(-c2ccccc2Oc2ccccc2)c2cc(C(=O)NCCCCC(=O)Nc3ccccc3N)[nH]c2c1=O
0.007 µM |  |  | 0.42 µM | 0.0039 µM | 0.333 µM | COc1ccc(C(C)(C)O)cc1-c1cn(C)c(=O)c2[nH]c(C(=O)NCc3ccc(C(=O)Nc4ccccc4N)cc3)cc12
0.313 µM |  |  |  | 0.823 µM | > 0.5 µM | Cn1cc(-c2cccc(C(F)(F)F)c2)c2cc(C(=O)NCc3ccc(C(=O)Nc4ccccc4N)cc3)[nH]c2c1=O
0.0758 µM |  |  | 0.23 µM | 0.0478 µM | 0.052 µM | Cn1cc(-c2ccccc2)c2cc(C(=O)NCc3ccc(C(=O)Nc4ccccc4N)cc3)[nH]c2c1=O
0.149 µM |  |  | 0.31 µM | 0.117 µM | 0.0639 µM | Cc1ccccc1-c1cn(C)c(=O)c2[nH]c(C(=O)NCc3ccc(C(=O)Nc4ccccc4N)cc3)cc12
0.03 µM |  |  | 2.2 µM | 0.02 µM | 0.0281 µM | Cn1cc(-c2cccc(C(C)(C)O)c2)c2cc(C(=O)NCc3ccc(C(=O)Nc4ccccc4N)cc3)[nH]c2c1=O
0.0015 µM |  | 0.0393 µM | 0.44 µM | 0.305 µM | 0.293 µM | Cc1cc(F)cc(C)c1Oc1ccc(C(C)(C)O)cc1-c1cn(C)c(=O)c2[nH]c(C(=O)NCc3ccc(C(=O)NO)cc3)cc12
0.0759 µM |  |  | 0.21 µM | 0.0509 µM | 0.0531 µM | Cn1cc(-c2cccc(F)c2)c2cc(C(=O)NCc3ccc(C(=O)Nc4ccccc4N)cc3)[nH]c2c1=O
0.364 µM |  |  |  | 0.146 µM | 0.24 µM | Cn1cc(-c2ccc(C(F)(F)F)cc2)c2cc(C(=O)NCc3ccc(C(=O)Nc4ccccc4N)cc3)[nH]c2c1=O
0.0058 µM |  | 0.0055 µM | 0.22 µM | 0.0262 µM | 0.0298 µM | Cn1cc(-c2cc(C(C)(C)O)ccc2OC2CC2)c2cc(C(=O)NCCCCCCC(=O)NO)[nH]c2c1=O
0.0072 µM |  | 0.0087 µM | 0.25 µM | 0.054 µM | 0.052 µM | Cn1cc(-c2cc(C(C)(C)O)ccc2Oc2ccc(F)cc2F)c2cc(C(=O)NCCCCCCC(=O)NO)[nH]c2c1=O
0.01 µM |  | 0.052 µM | 0.35 µM | 0.0313 µM | 0.036 µM | CC(C)Oc1ccc(C(C)(C)O)cc1-c1cn(C)c(=O)c2[nH]c(C(=O)NCc3ccc(C(=O)NO)cc3)cc12
0.0015 µM |  |  | 0.09 µM | 0.0181 µM | 0.164 µM | Cn1cc(-c2cc(C(C)(C)O)ccc2Oc2ccc(F)cc2F)c2cc(C(=O)NCc3ccc(C(=O)Nc4ccccc4N)cc3)[nH]c2c1=O
0.158 µM |  |  | 0.19 µM | 0.0655 µM | 0.134 µM | Cn1cc(-c2cccc(Cl)c2)c2cc(C(=O)NCc3ccc(C(=O)Nc4ccccc4N)cc3)[nH]c2c1=O
0.0476 µM |  |  | 0.2 µM | 0.0226 µM | 0.0576 µM | COc1ccccc1-c1cn(C)c(=O)c2[nH]c(C(=O)NCc3ccc(C(=O)Nc4ccccc4N)cc3)cc12

IC50 [1] | inhibition [2] | IC50 [3] | IC50 (MV4-11) | IC50 [4] | IC50 (Histone deacetylase 1) | Compound
0.003 µM |  |  | 0.1 µM | 0.0134 µM | 0.229 µM | Cn1cc(-c2cc(C(C)(C)O)ccc2Oc2ccccc2)c2cc(C(=O)NCc3ccc(C(=O)Nc4ccccc4N)cc3)[nH]c2c1=O
0.0154 µM |  | > 0.5 µM | 0.13 µM | 0.14 µM | > 0.5 µM | Cn1cc(-c2ccccc2Oc2ccccc2)c2cc(C(=O)NCCCCCCC(=O)Nc3ccccc3N)[nH]c2c1=O
> 10 µM |  |  | 0.24 µM | > 10 µM |  | Nc1ccccc1NC(=O)c1ccc(CNC(=O)OCc2cccnc2)cc1 [ENTINOSTAT]
0.0153 µM |  |  | 0.13 µM | 0.0228 µM | 0.116 µM | CC(C)Oc1ccccc1-c1cn(C)c(=O)c2[nH]c(C(=O)NCc3ccc(C(=O)Nc4ccccc4N)cc3)cc12
0.105 µM |  |  |  | 0.0528 µM | 0.0549 µM | Cc1cccc(-c2cn(C)c(=O)c3[nH]c(C(=O)NCc4ccc(C(=O)Nc5ccccc5N)cc4)cc23)c1
0.0124 µM |  | 0.0156 µM | 0.19 µM | 0.0767 µM | 0.074 µM | Cn1cc(-c2cc(C(C)(C)O)ccc2Oc2ccc(F)cc2F)c2cc(C(=O)NCc3ccc(C(=O)NO)cc3)[nH]c2c1=O
0.122 µM |  |  |  | 0.061 µM | 0.094 µM | Cc1ccc(-c2cn(C)c(=O)c3[nH]c(C(=O)NCc4ccc(C(=O)Nc5ccccc5N)cc4)cc23)cc1
0.278 µM |  |  |  | 0.0624 µM | 0.0593 µM | Cn1cc(-c2ccc(Cl)cc2)c2cc(C(=O)NCc3ccc(C(=O)Nc4ccccc4N)cc3)[nH]c2c1=O
 |  | > 10 µM | 0.25 µM |  | > 10 µM | CCNC(=O)c1cc2c(-c3cc(C(C)(C)O)ccc3Oc3c(C)cc(F)cc3C)cn(C)c(=O)c2[nH]1 [ABBV-744]
0.0084 µM |  | > 0.5 µM | 0.07 µM | 0.583 µM | 0.176 µM | Cn1cc(-c2ccccc2Oc2ccccc2)c2cc(C(=O)NCCCCCC(=O)Nc3ccccc3N)[nH]c2c1=O
0.0799 µM |  |  | 0.22 µM | 0.0441 µM | 0.0473 µM | Cn1cc(-c2ccc(F)cc2)c2cc(C(=O)NCc3ccc(C(=O)Nc4ccccc4N)cc3)[nH]c2c1=O
0.103 µM |  | 0.144 µM | 0.38 µM | 0.142 µM | > 0.5 µM | Cn1cc(-c2ccccc2Oc2ccccc2)c2cc(C(=O)NCCCC(=O)NO)[nH]c2c1=O
0.0021 µM |  |  | 0.04 µM | 0.0077 µM | 0.0688 µM | Cn1cc(-c2cc(C(C)(C)O)ccc2OC2CC2)c2cc(C(=O)NCc3ccc(C(=O)Nc4ccccc4N)cc3)[nH]c2c1=O
0.116 µM |  |  | 0.25 µM | 0.0301 µM | 0.0545 µM | COc1cccc(-c2cn(C)c(=O)c3[nH]c(C(=O)NCc4ccc(C(=O)Nc5ccccc5N)cc4)cc23)c1
0.0553 µM |  |  | 0.23 µM | 0.0859 µM | 0.0208 µM | Cn1cc(-c2ccccc2F)c2cc(C(=O)NCc3ccc(C(=O)Nc4ccccc4N)cc3)[nH]c2c1=O
0.0612 µM |  |  | 0.32 µM | 0.0405 µM | 0.0468 µM | COc1ccc(-c2cn(C)c(=O)c3[nH]c(C(=O)NCc4ccc(C(=O)Nc5ccccc5N)cc4)cc23)cc1
0.0069 µM |  | 0.0079 µM | 0.42 µM | 0.252 µM | 0.0208 µM | Cn1cc(-c2cc(C(C)(C)O)ccc2OC2CC2)c2cc(C(=O)NCc3ccc(C(=O)NO)cc3)[nH]c2c1=O
0.0366 µM |  |  | 0.24 µM | 0.229 µM | > 0.5 µM | Cc1cc(F)cc(C)c1Oc1ccc(C(C)(C)O)cc1-c1cn(C)c(=O)c2[nH]c(C(=O)NCc3ccc(C(=O)Nc4ccccc4N)cc3)cc12

Compound | IC50 [1] | inhibition [2] | IC50 [3] | IC50 (MV4-11) | IC50 [4] | IC50 (Histone deacetylase 1)
Cc1sc2c(c1C)C(c1ccc(Cl)cc1)=N[C@@H](CC(=O)Nc1ccc(O)cc1)c1nnc(C)n1-2 [BIRABRESIB] |  |  | > 10 µM | 0.2 µM |  | > 10 µM
